From PubChem BioAssay (NCI)
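Method: 48-hour compound exposure of cells in 96-well plates, five concentrations, linear interpolation of endpoints. At the TGI there is no net growth.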

Key:
Assay in all cases: NCI tumour cell line growth inhibition, 48 h
HCC-2998 colon = tested on: HCC-2998 colon
NCI/ADR-RES ovarian = tested on: NCI/ADR-RES ovarian
TK-10 renal = tested on: TK-10 renal
A498 renal = tested on: A498 renal
OVCAR-4 ovarian = tested on: OVCAR-4 ovarian
T-47D breast = tested on: T-47D breast
SR leukemia = tested on: SR leukemia
LOX IMVI melanoma = tested on: LOX IMVI melanoma
UACC-62 melanoma = tested on: UACC-62 melanoma
MALME-3M melanoma = tested on: MALME-3M melanoma
M14 melanoma = tested on: M14 melanoma
HL-60(TB) leukemia = tested on: HL-60(TB) leukemia
EKVX NSCLC = tested on: EKVX NSCLC
BT-549 breast = tested on: BT-549 breast
SF-539 CNS = tested on: SF-539 CNS
RPMI-8226 leukemia = tested on: RPMI-8226 leukemia
SW-620 colon = tested on: SW-620 colon
CCRF-CEM leukemia = tested on: CCRF-CEM leukemia
ACHN renal = tested on: ACHN renal

Structure (SMILES) | TGI (HCC-2998 colon) | TGI (NCI/ADR-RES ovarian) | TGI (TK-10 renal) | TGI (A498 renal) | TGI (OVCAR-4 ovarian) | TGI (T-47D breast) | TGI (SR leukemia) | TGI (LOX IMVI melanoma) | TGI (UACC-62 melanoma) | TGI (MALME-3M melanoma) | TGI (M14 melanoma) | TGI (HL-60(TB) leukemia) | TGI (EKVX NSCLC) | TGI (BT-549 breast) | TGI (SF-539 CNS) | TGI (RPMI-8226 leukemia) | TGI (SW-620 colon) | TGI (CCRF-CEM leukemia) | TGI (ACHN renal)
C=CCN1CCC(OC(=O)C(O)(C#CC)C2CCCC2)CC1 (centres undefined) | > 100 µM | > 100 µM | > 100 µM | > 100 µM | > 100 µM | > 100 µM | > 100 µM | > 100 µM | > 100 µM | > 100 µM | > 100 µM | > 100 µM | > 100 µM | > 100 µM | > 100 µM | > 100 µM | > 100 µM | > 100 µM | > 100 µM
Cc1ccc(C2=Nc3cc(C)c(Cl)cc3S(=O)(=O)NN2)cc1 | > 100 µM | > 100 µM | > 100 µM | > 100 µM | > 100 µM | > 100 µM | 53 µM | > 100 µM | > 100 µM | > 100 µM | > 100 µM | 90.7 µM | > 100 µM | > 100 µM | > 100 µM | > 100 µM | > 100 µM | > 100 µM | > 100 µM
COc1ccccc1/C=C/C1=NN(c2cccc(S(=O)(=O)O)c2)C2(C1)SCC(=O)N2c1nc2ccccc2s1 (centres undefined) | > 100 µM | > 100 µM | > 100 µM | > 100 µM | > 100 µM | 71.8 µM | 87.9 µM | > 100 µM | > 100 µM | > 100 µM | > 100 µM | > 100 µM | > 100 µM | > 100 µM | > 100 µM | 65.4 µM | > 100 µM | 90 µM | > 100 µM
CN(C)c1ccc(/C=c2/c3ccccc3n3c2c2ccccc2[n+]3C)cc1 | 3.33 µM | 32.8 µM | 3.36 µM | 5.14 µM | 8.3 µM | 1.51 µM | 1.98 µM | 1.98 µM | 0.998 µM | 1.47 µM | 1.69 µM | 0.428 µM | 23.5 µM | 1.03 µM | 3.12 µM | 0.581 µM | 1.61 µM | 1.23 µM | 2.88 µM
Nc1cc2c3c(c1)Oc1cc(N)cc4c1C3c1c(cc(N)cc1O4)O2 | > 100 µM | 26.9 µM | > 100 µM | > 100 µM | > 100 µM | > 93.2 µM | 50 µM | 41.6 µM | > 69.6 µM | 22.8 µM | > 100 µM | 52.6 µM | > 47.7 µM | 51.3 µM | 46.2 µM | 52.2 µM | > 100 µM | 81.5 µM | > 51.3 µM
N#Cc1c(N2CCCC2)nsc1NCc1ccccc1 | > 100 µM | > 100 µM | > 100 µM | > 100 µM | > 100 µM | > 100 µM | > 100 µM | > 100 µM | > 100 µM | > 100 µM | > 100 µM | > 100 µM | > 100 µM | > 100 µM | > 100 µM | > 100 µM | > 100 µM | > 100 µM | > 100 µM
